# In patent US20230406843A1, “Progranulin Modulators and Methods of Using the Same” (ARKUDA THERAPEUTICS, priority 2020, published 2023):
# Read-outs that look alike come from different tables or passages of the source.
# System: progranulin
# Assay: Progranulin induction cellular assay (ELISA of secreted mouse PGRN)
# Assay type: cell-based
# How it was run: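 Secreted mouse PGRN in culture medium is measured by ELISA. Cells tested are BV-2, primary cortical neurons and primary microglia. BV-2 cells are plated a day ahead, allowed 1 h to attach, then incubated 16 h.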
# [1] = progranulin induction assay, mouse pMG, primary cortical neurons and BV-2 cell lines named, cell type not given, ELISA-based readout, read-out: EC50
# [2] = Mus musculus, BV-2, read-out: EC50 μM
SMILES,EC50 [1],EC50 [2]
"N[C@@H]1COC(C(=O)N2CCc3ccccc3[C@@H]2c2ccc(F)cc2)C1 (stereo in doubt) [Compound 5013, ((2R,4S)-4-aminotetrahydrofuran-2-yl)((S)-1-(4-fluorophenyl)-3,4-dihydroisoquinolin-2(1H)-yl)methanone]",0.323 µM,
"CCC(=O)N1CCN[C@H]2C[C@H](C(=O)N3CCc4ccccc4[C@@H]3c3ccc(F)cc3)OC[C@@H]21 (single isomer, unassigned) [Compound 5544]",0.019 µM,
"NC[C@@H]1CC[C@H](C(=O)N2CCc3ccccc3[C@@H]2c2ccc(F)cc2)O1 [Compound 5000, ((2R,5S)-5-(aminomethyl)tetrahydrofuran-2-yl)((S)-1-(4-fluorophenyl)-3,4-dihydroisoquinolin-2(1H)-yl)methanone]",0.41 µM,
"[NH-][S@@+2]1([O-])CCN[C@H]2C[C@H](C(=O)N3CCc4ccccc4[C@@H]3c3ccc(F)cc3)OC[C@@H]21 [Compound 5553, ((S)-1-(4-fluorophenyl)-3,4-dihydroisoquinolin-2(1H)-yl)((4R,4aR,7R,8aS)-4-imino-4-oxidooctahydro-2H-^4-pyrano[3,4-b][1,4]thiazin-7-yl)methanone]",1.02 µM,
"C[C@@H]1CN[C@H]2C[C@H](C(=O)N3CCc4ccccc4[C@@H]3c3ccc(F)cc3)OC[C@@H]2O1 [Compound 5472, ((S)-1-(4-fluorophenyl)-3,4-dihydroisoquinolin-2(1H)-yl)((3R,4aR,7R,8aS)-3-methyloctahydropyrano[3,4-b][1,4]oxazin-7-yl)methanone]",0.013 µM,
"N[C@@]12CC[C@@](C(=O)N3CCc4ccccc4C3c3ccc(F)cc3)(C1)OC2 (stereo in doubt) [Compound 5020, (4-amino-2-oxabicyclo[2.2.1]heptan-1-yl)((S)-1-(4-fluorophenyl)-3,4-dihydroisoquinolin-2(1H)-yl)methanone]",1.06 µM,
CC(C)[C@@H]1CN[C@H]2C[C@H](C(=O)N3CCc4ccccc4[C@@H]3c3ccc(F)cc3)OC[C@@H]2O1 [Compound 5567],0.07 µM,
"O=C([C@@H]1C[C@@](O)(CNCCO)CO1)N1CCc2ccccc2[C@@H]1c1ccc(F)cc1 (single isomer, unassigned) [Compound 5038]",0.5 µM,
"CC(=O)N(C)[C@H]1CO[C@@H](C(=O)N2CCc3ccccc3[C@@H]2c2ccc(F)cc2)C[C@@H]1N [Compound 5516, N-((3R,4S,6R)-4-amino-6-((S)-1-(4-fluorophenyl)-1,2,3,4-tetrahydroisoquinoline-2-carbonyl)tetrahydro-2H-pyran-3-yl)-N-methylacetamide]",0.007 µM,
CCN1CCN[C@H]2C[C@H](C(=O)N3CCc4ccccc4[C@@H]3c3ccc(F)cc3)OC[C@@H]21 [Compound 5599],0.001 µM,
"O=C([C@@H]1CNCCO1)N1CCc2ccccc2[C@@H]1c1ccc(F)cc1 [Compound 5406, ((S)-1-(4-fluorophenyl)-3,4-dihydroisoquinolin-2(1H)-yl)((S)-morpholin-2-yl)methanone]",0.715 µM,
"N[C@@H]1CCO[C@H](C(=O)N2CCc3ccccc3[C@@H]2c2ccc(F)cc2)C1 (single isomer, unassigned) [Compound 5081]",0.188 µM,
"CC[C@@H]1CN[C@H]2C[C@H](C(=O)N3CCc4ccccc4[C@@H]3c3ccc(F)cc3)OC[C@@H]2O1 [Compound 5564, ((3R,4aR,7R,8aS)-3-ethyloctahydropyrano[3,4-b][1,4]oxazin-7-yl)((S)-1-(4-fluorophenyl)-3,4-dihydroisoquinolin-2(1H)-yl)methanone]",0.004 µM,
"CO[C@H]1CO[C@@H](C(=O)N2CCc3ccccc3[C@@H]2c2ccc(F)cc2)C[C@H]1N [Compound 5073, ((2R,4R,5R)-4-amino-5-methoxytetrahydro-2H-pyran-2-yl)((S)-1-(4-fluorophenyl)-3,4-dihydroisoquinolin-2(1H)-yl)methanone]",0.159 µM,
"C[S@](=N)(=O)[C@H]1CO[C@@H](C(=O)N2CCc3ccccc3[C@@H]2c2ccc(F)cc2)C[C@@H]1N (single isomer, unassigned) [Compound 5548]",0.071 µM,
"NCC1(O)COC(C(=O)N2CCc3ccccc3[C@@H]2c2ccc(F)cc2)C1 (single isomer, unassigned) [Compound 5006]",0.143 µM,
"CS(=O)(=O)[C@H]1CO[C@@H](C(=O)N2CCc3ccccc3[C@@H]2c2ccc(F)cc2)C[C@@H]1N [Compound 5523, ((2R,4S,5R)-4-amino-5-(methylsulfonyl)tetrahydro-2H-pyran-2-yl)((S)-1-(4-fluorophenyl)-3,4-dihydroisoquinolin-2(1H)-yl)methanone]",0.016 µM,
"O=C([C@H]1OCCNC[C@H]1O)N1CCc2ccccc2[C@@H]1c1ccc(F)cc1 (single isomer, unassigned) [Compound 5246]",0.1 µM,
N[C@H]1CC[C@H](C(=O)N2CCc3ccccc3[C@@H]2c2ccc(F)cc2F)OC1 [Compound 5255],0.03 µM,
"O=C([C@@H]1CCNCCO1)N1CCc2ccccc2[C@@H]1c1ccc(F)cc1F (single isomer, unassigned) [Compound 5264]",0.048 µM,

SMILES,EC50 [1],EC50 [2]
"N[C@H]1CO[C@H](C(=O)N2CCc3ccccc3[C@@H]2c2ccc(F)cc2)C[C@@H]1O [Compound 5056, ((2S,4S,5S)-5-amino-4-hydroxytetrahydro-2H-pyran-2-yl)((S)-1-(4-fluorophenyl)-3,4-dihydroisoquinolin-2(1H)-yl)methanone]",0.127 µM,
"N[C@]12CC[C@](C(=O)N3CCc4ccccc4[C@@H]3c3ccc(F)cc3)(C1)OC2 (single isomer, unassigned) [Compound 5021]",0.148 µM,
"CC[C@H]1CO[C@@H](C(=O)N2CCc3ccccc3[C@@H]2c2ccc(F)cc2)C[C@@H]1N [Compound 5526, ((2R,4S,5R)-4-amino-5-ethyltetrahydro-2H-pyran-2-yl)((S)-1-(4-fluorophenyl)-3,4-dihydroisoquinolin-2(1H)-yl)methanone]",0.006 µM,
"C[C@]1(C(=O)N2CCc3ccccc3[C@@H]2c2ccc(F)cc2)C[C@@H](N)CCO1 (single isomer, unassigned) [Compound 5235]",0.372 µM,
"N[C@]1(CO)CC[C@@H](C(=O)N2CCc3ccccc3[C@@H]2c2ccc(F)cc2)OC1 [Compound 5213, ((2S,5S)-5-amino-5-(hydroxymethyl)tetrahydro-2H-pyran-2-yl)((S)-1-(4-fluorophenyl)-3,4-dihydroisoquinolin-2(1H)-yl)methanone]",0.401 µM,
"C#CCO[C@H]1CO[C@@H](C(=O)N2CCc3ccccc3[C@@H]2c2ccc(F)cc2)C[C@@H]1N [Compound 5541, ((2R,4S,5R)-4-amino-5-(prop-2-yn-1-yloxy)tetrahydro-2H-pyran-2-yl)((S)-1-(4-fluorophenyl)-3,4-dihydroisoquinolin-2(1H)-yl)methanone]",,0.001 µM
"CC[S@](=N)(=O)[C@H]1CO[C@@H](C(=O)N2CCc3ccccc3[C@@H]2c2ccc(F)cc2)C[C@@H]1N (single isomer, unassigned) [Compound 5550]",0.017 µM,
"N[C@@]12CC[C@@](C(=O)N3CCc4ccccc4[C@H]3c3ccc(F)cc3)(C1)OC2 (stereo in doubt) [Compound 5022, (4-amino-2-oxabicyclo[2.2.1]heptan-1-yl)((S)-1-(4-fluorophenyl)-3,4-dihydroisoquinolin-2(1H)-yl)methanone]",4.16 µM,
"N[C@@H]1C[C@H](C(=O)N2CCc3ccccc3[C@@H]2c2ccc(F)cc2)OC[C@H]1F [Compound 5251, ((2R,4R,5S)-4-amino-5-fluorotetrahydro-2H-pyran-2-yl)((S)-1-(4-fluorophenyl)-3,4-dihydroisoquinolin-2(1H)-yl)methanone]",0.188 µM,
C[C@@]1(C(=O)N2CCc3ccccc3[C@@H]2c2ccc(F)cc2)OCCNC[C@H]1O [Compound 5505],0.41 µM,
"COC[C@@]1(N)CC[C@@H](C(=O)N2CCc3ccccc3[C@@H]2c2ccc(F)cc2)OC1 [Compound 5217, ((2S,5S)-5-amino-5-(methoxymethyl)tetrahydro-2H-pyran-2-yl)((S)-1-(4-fluorophenyl)-3,4-dihydroisoquinolin-2(1H)-yl)methanone]",,0.226 µM
CCO[C@@H]1CO[C@@H](C(=O)N2CCc3ccccc3[C@@H]2c2ccc(F)cc2F)C[C@@H]1N [Compound 5262],0.044 µM,
"N[C@@]1(CO)CC[C@@H](C(=O)N2CCc3ccccc3[C@@H]2c2ccc(F)cc2)OC1 [Compound 5214, ((2S,5R)-5-amino-5-(hydroxymethyl)tetrahydro-2H-pyran-2-yl)((S)-1-(4-fluorophenyl)-3,4-dihydroisoquinolin-2(1H)-yl)methanone]",0.08 µM,
"CO[C@H]1CO[C@@H](C(=O)N2CCc3ccccc3[C@@H]2c2ccc(F)cc2)C[C@@H]1N(C)C [Compound 5575, ((2R,4S,5R)-4-(dimethylamino)-5-methoxytetrahydro-2H-pyran-2-yl)((S)-1-(4-fluorophenyl)-3,4-dihydroisoquinolin-2(1H)-yl)methanone]",0.028 µM,
"NC[C@@]1(O)COC(C(=O)N2CCc3ccccc3[C@@H]2c2ccc(F)cc2)C1 (single isomer, unassigned) [Compound 5004]",0.164 µM,
"CCS(=O)(=O)[C@H]1CO[C@@H](C(=O)N2CCc3ccccc3[C@@H]2c2ccc(F)cc2)C[C@@H]1N [Compound 5524, ((2R,4S,5R)-4-amino-5-(ethylsulfonyl)tetrahydro-2H-pyran-2-yl)((S)-1-(4-fluorophenyl)-3,4-dihydroisoquinolin-2(1H)-yl)methanone]",0.016 µM,
"O=C([C@H]1C[C@@H]2NCCO[C@H]2CO1)N1CCc2ccccc2[C@@H]1c1ccc(F)cc1 [Compound 5266, ((S)-1-(4-fluorophenyl)-3,4-dihydroisoquinolin-2(1H)-yl)((4aR,7R,8aS)-octahydropyrano[3,4-b][1,4]oxazin-7-yl)methanone]",0.036 µM,
O=C([C@@H]1OCCNC[C@H]1O)N1CCc2ccccc2[C@@H]1c1ccc(F)cc1 [Compound 5245],0.35 µM,
"N[C@@H]1C[C@H](C(=O)N2CCc3ccccc3[C@@H]2c2ccc(F)cc2)OC[C@@H]1O [Compound 5074, ((2R,4R,5R)-4-amino-5-hydroxytetrahydro-2H-pyran-2-yl)((S)-1-(4-fluorophenyl)-3,4-dihydroisoquinolin-2(1H)-yl)methanone]",0.23 µM,
